Values joined by “and” are separate entries in the source; they are usually repeats but may differ in a detail not shown here. Equal entries are not always repeated.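 Step 1: Grow cells in 96-well plates. Step 2: Expose to compound for 48 hours at 5 concentrations. Step 3: Interpolate endpoints linearly; if unreached, use highest concentration. At the GI50, growth is halved.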 Active and inactive are the calls of the source. No stated cut-off is given here; in the data, active = GI50 up to about 1.1 µM and inactive = higher.
How the values were obtained:
Assay in all cases: NCI-60 cell line screen, 48 h
UACC-62 = test system: UACC-62
SK-MEL-28 = test system: SK-MEL-28
SW-620 = test system: SW-620
A549 = test system: A549
HOP-92 = test system: HOP-92
UO-31 = test system: UO-31
M14 = test system: M14
HCT-116 = test system: HCT-116
SK-OV-3 = test system: SK-OV-3
COLO 205 = test system: COLO 205
CCRF-CEM = test system: CCRF-CEM
SNB-75 = test system: SNB-75
786-0 = test system: 786-0
SF-295 = test system: SF-295
UACC-257 = test system: UACC-257
MDA-MB-435 = test system: MDA-MB-435
IGROV-1 = test system: IGROV-1
SR = test system: SR
LOX IMVI = test system: LOX IMVI
NCI-H226 = test system: NCI-H226

Row | SMILES | GI50 (UACC-62) | GI50 (SK-MEL-28) | GI50 (SW-620) | GI50 (A549) | GI50 (HOP-92) | GI50 (UO-31) | GI50 (M14) | GI50 (HCT-116) | GI50 (SK-OV-3) | GI50 (COLO 205) | GI50 (CCRF-CEM) | GI50 (SNB-75) | GI50 (786-0) | GI50 (SF-295) | GI50 (UACC-257) | GI50 (MDA-MB-435) | GI50 (IGROV-1) | GI50 (SR) | GI50 (LOX IMVI) | GI50 (NCI-H226)
1 | N#Cc1c(-c2ccccc2)[nH]c(=O)n(C2OC(CO)C(O)C(O)C2O)c1=O (stereo not drawn) | > 100 µM (inactive) | > 100 µM (inactive) | > 100 µM (inactive) | > 100 µM (inactive) | > 100 µM (inactive) | > 100 µM (inactive) | > 100 µM (inactive) | > 100 µM (inactive) | > 100 µM (inactive) | > 100 µM (inactive) | > 100 µM (inactive) | > 100 µM (inactive) and 75.7 µM (inactive) | > 100 µM (inactive) | > 100 µM (inactive) | > 100 µM (inactive) | > 100 µM (inactive) |  |  |  | 
2 | [O-][S+]1CSSC1 | 10.4 µM (inactive) | 27.4 µM (inactive) | 15 µM (inactive) | 33.9 µM (inactive) | 26.1 µM (inactive) | 18.7 µM (inactive) | 22.5 µM (inactive) | 16.2 µM (inactive) | 24.3 µM (inactive) | 17.1 µM (inactive) | 4.42 µM (inactive) | 27.7 µM (inactive) | 20.7 µM (inactive) | 20.7 µM (inactive) | 14.8 µM (inactive) |  | 22 µM (inactive) | 9.79 µM (inactive) | 2.2 µM (inactive) | 26.3 µM (inactive)
3 | CN(C)CCCNC(CC#N)CCC#N (stereo not drawn) | > 10 µM (inactive) | > 10 µM (inactive) | > 10 µM (inactive) | > 10 µM (inactive) | > 10 µM (inactive) | > 10 µM (inactive) | > 10 µM (inactive) | > 10 µM (inactive) | > 10 µM (inactive) | > 10 µM (inactive) | > 10 µM (inactive) | > 10 µM (inactive) | > 10 µM (inactive) | > 10 µM (inactive) | > 10 µM (inactive) | > 10 µM (inactive) | > 10 µM (inactive) |  | > 10 µM (inactive) | > 10 µM (inactive)
4 | CC(C)/C(Cl)=N\OC(=O)Nc1ccc(F)cc1F | 16.9 µM (inactive) | 11 µM (inactive) | 1.78 µM (inactive) | 18.4 µM (inactive) | 1.82 µM (inactive) | 7.52 µM (inactive) | 2.98 µM (inactive) | 3.78 µM (inactive) | 17.1 µM (inactive) | 1.87 µM (inactive) | 0.836 µM (active) | 17.3 µM (inactive) | 3.9 µM (inactive) | 15.1 µM (inactive) | 14.1 µM (inactive) |  | 16 µM (inactive) | 1.67 µM (inactive) | 1.66 µM (inactive) | 15.8 µM (inactive)
5 | Cc1ccc(/N=N/c2ccc(N)cc2C)c(S(N)(=O)=O)c1 | 88.9 µM (inactive) | > 100 µM (inactive) | > 100 µM (inactive) | 50.5 µM (inactive) | 32.1 µM (inactive) | 63 µM (inactive) | > 100 µM (inactive) | 75.3 µM (inactive) | > 100 µM (inactive) | 76.7 µM (inactive) | 48.1 µM (inactive) | 61.9 µM (inactive) | > 100 µM (inactive) | 56.1 µM (inactive) | 45.2 µM (inactive) |  | 77.3 µM (inactive) | 0.478 µM (active) | 78.5 µM (inactive) | > 100 µM (inactive)
6 | O=C1CC(CC(=O)C2CCCCC2=O)C(=O)N1 (stereo not drawn) | > 100 µM (inactive) | > 100 µM (inactive) | > 100 µM (inactive) | > 100 µM (inactive) | > 100 µM (inactive) | > 100 µM (inactive) | > 100 µM (inactive) | > 100 µM (inactive) | > 100 µM (inactive) | > 100 µM (inactive) | > 100 µM (inactive) | > 100 µM (inactive) | > 100 µM (inactive) | > 100 µM (inactive) | > 100 µM (inactive) |  | > 100 µM (inactive) | > 100 µM (inactive) | > 100 µM (inactive) | > 100 µM (inactive)
7 | O=C(/C=C/c1ccc(Cl)c(Cl)c1)c1ccccc1Cl | 12.8 µM (inactive) | 8.95 µM (inactive) | 4.91 µM (inactive) | 15.8 µM (inactive) | 16.7 µM (inactive) | 14.5 µM (inactive) | 6.24 µM (inactive) | 4.71 µM (inactive) | 24.4 µM (inactive) | 16.1 µM (inactive) | 6.67 µM (inactive) | 9.14 µM (inactive) | 5.32 µM (inactive) | 13.7 µM (inactive) | 14.3 µM (inactive) |  | 9.84 µM (inactive) | 4.42 µM (inactive) | 13.2 µM (inactive) | 16.6 µM (inactive)
8 | COc1ccc(-c2oc3c(OC)c(OC)c(OC)c(O)c3c(=O)c2OC)cc1O | 0.0481 µM (active) | < 0.01 µM (active) | 0.038 µM (active) | 0.36 µM (active) | < 0.01 µM (active) | 0.082 µM (active) | 0.0592 µM (active) | 0.0783 µM (active) | 0.139 µM (active) | 11.1 µM (inactive) | 0.0135 µM (active) | 0.0443 µM (active) | 0.446 µM (active) | 0.478 µM (active) | 0.0583 µM (active) |  | 0.462 µM (active) | 0.0702 µM (active) | 0.0935 µM (active) | 0.0612 µM (active)
9 | COc1ccc(/C=C2\CN(C)CC3C2=NN(c2ccccc2)C3c2ccc(OC)cc2)cc1 (stereo not drawn) | 75 µM (inactive) | > 100 µM (inactive) | > 100 µM (inactive) | > 100 µM (inactive) | 28 µM (inactive) | > 100 µM (inactive) | 27.2 µM (inactive) | > 100 µM (inactive) | 16.6 µM (inactive) | > 100 µM (inactive) | > 100 µM (inactive) |  | 27.7 µM (inactive) | 62.2 µM (inactive) | > 100 µM (inactive) | > 100 µM (inactive) | > 100 µM (inactive) |  | > 100 µM (inactive) | > 100 µM (inactive)
10 | COc1ccc(/C=C/C(=O)CCN2CCN(CCC(=O)/C=C/c3ccc(OC)cc3)CC2)cc1 | 13.4 µM (inactive) | 13.6 µM (inactive) | 4.1 µM (inactive) | 20.9 µM (inactive) | 18.6 µM (inactive) | 14.6 µM (inactive) | 15.3 µM (inactive) | 3.29 µM (inactive) | 11.8 µM (inactive) | 2.01 µM (inactive) |  | 19.1 µM (inactive) | 3.4 µM (inactive) | 8.26 µM (inactive) | 14.8 µM (inactive) | 9.35 µM (inactive) | 11.5 µM (inactive) |  | 3.49 µM (inactive) | 22.3 µM (inactive)
11 | CC/C=N\N1C(N)=C(C#N)C(C#N)(C#N)C1CC (stereo not drawn) | 59.4 µM (inactive) | 56.2 µM (inactive) | 61.7 µM (inactive) | > 100 µM (inactive) |  | > 100 µM (inactive) | > 100 µM (inactive) | 10.8 µM (inactive) | > 100 µM (inactive) | > 100 µM (inactive) | 36.1 µM (inactive) | 81.8 µM (inactive) | > 100 µM (inactive) | > 100 µM (inactive) | > 100 µM (inactive) | 50.6 µM (inactive) | 63.1 µM (inactive) |  | 49 µM (inactive) | > 100 µM (inactive)
